Results published in patent publication US12102104B2, “Carbonation sensation enhancing agent for foods and beverages having carbonate stimulation” (Ogawa & Co., Ltd., priority 2018, dated 2024).

Experiments:
expert panelists [1] = experiment: Test Example 2: sensory comparison of polygodial with known carbonation sensation enhancing agents; assay type: in vivo, human
Description: Sensory evaluation of the samples of Example 4 and Comparative Examples 3 to 11 was performed by 10 expert panelists based on the following Evaluation criteria 1 to 3 using the carbonated water for evaluation of Preparation Example 1 as a control.
[Evaluation Criteria 1] (Strength of Carbonate Stimulation)
(Mode of Generation of Carbonate Stimulation)
Mode of generation of carbonate stimulation was defined as follows and the timing when the highest effect was felt was selected. The timing that won a majority (6 panelists or more) was regarded as the mode of generation of carbonate stimulation of the substance. In the case of a tie (5 panelists for each), the result was referred to as middle.
Initial: stimulation felt immediately after the sample was put in one's mouth. The impact at the moment when one took the sample.
Last: stimulation felt after swallowing the sample. Aftertaste and feeling when going down. Delayed effect.
[Evaluation Criteria 3] (Characteristics of Flavor)
Majority opinions were obtained from panelists' free descriptions of characteristics of flavor they felt.

[2] = Decomposition of polygodial on distillation; assay type: physicochemical; settings: yield significantly reduced
Description: Thus, distillation needs to be performed under reduced pressure using a known vacuum pump such as oil rotary pump, a mechanical booster pump and a diffusion pump.

expert panelists [3] = experiment: Test Example 1: sensory evaluation of carbonated water with polygodial; assay type: in vivo, human
Description: Carbonated water for evaluation was prepared by diluting commercially available carbonated water (pressure of carbon dioxide gas before opening 3.0 kg/cm^2) with water such that the pressure of carbon dioxide gas was 1.3 kg/cm^2.
Polygodial (manufactured by Wako Pure Chemical Industries, Ltd.) was added to the carbonated water for evaluation of Preparation Example 1 such that the concentration was as shown in Table 1 described later and this was referred to as Comparative Examples 1 and 2, and Examples 1 to 6.
20 ppm of the Persicaria hydropiper extract of Production Example 1 was added to the carbonated water for evaluation of Preparation Example 1 and this was referred to as Example 7.
0.05 ppm of Tasmannia lanceolata oil (manufactured by ESSENTIAL OILS OF TASMANIA PTY LTD, polygodial content 20%) was added to the carbonated water for evaluation of Preparation Example 1 and this was referred to as Example 8. […]
Sensory evaluation was performed by 10 expert panelists based on the following Evaluation criteria using a product to which polygodial was not added as a control. For the strength of an offensive taste and odor, the average of the score of the 10 panelists was calculated and determined as the result of evaluation. […]

expert panelists [4] = experiment: Test Example 3: equivalent carbon dioxide gas pressure by paired comparison; assay type: in vivo, human; settings: base 1.3 kg/cm^2, polygodial 10 ppb (Example 7)
Description: The strength of carbonate stimulation of the carbonated water of Example 7 prepared by adding the Persicaria hydropiper extract of Production Example 1 to the carbonated water for evaluation of Preparation Example 1 (1.3 kg/cm^2) and the strength of carbonate stimulation of the carbonated waters described in Table 3 (1.4 kg/cm^2, 1.6 kg/cm^2, 1.9 kg/cm^2) separately prepared as a control were compared by 18 to 20 expert panelists. The number of panelists who judged that the carbonated water of Example 7 had strong carbonation and the selectivity of the carbonated water of Example 7 are shown in Table 3.
Furthermore, the relation between the concentration of carbon dioxide gas in the control product and the selectivity of the carbonated water of Example 7 was plotted (see FIG. 1).
Thus, it is considered that addition of polygodial has the same effect as increasing the pressure of carbon dioxide gas by 0.3 kg/cm^2.

Structure (SMILES)	Timing of the effect of enhancing carbonation sensation (expert panelists [1])	Evaporating temperature at which polygodial is decomposed [2]	Enhancement of carbonation sensation (expert panelists [3]; polygodial 0.01 ppb)	Enhancement of carbonation sensation and pungency (expert panelists [3]; polygodial 400 ppb)	Increase of pressure of carbon dioxide gas having the same effect as addition (expert panelists [4]) [kg/cm^2]
C/C=C/C=C\CC/C=C/C(=O)NCC(C)C [spilanthol, (2E,6Z,8E)-N-Isobutyl-2,6,8-decatrienamide, reference compound]	relatively delayed	–	–	–	–
CC1(C)CCC[C@]2(C)[C@@H](C=O)C(C=O)=CC[C@@H]12 [polygodial, (1R,4aS,8aS)-5,5,8a-trimethyl-1,4,4a,6,7,8-hexahydronaphthalene-1,2-dicarboxaldehyde]	immediate effect	more than 150 °C	not enhanced	pungency appeared with enhanced carbonation sensation	0.3
